{
  "source": "the NIST ThermoML archive (doi:10.1007/s10765-014-1740-z)",
  "details": "Crystal; visual observation",
  "note": "± gives the expanded uncertainty stated by the source.",
  "data": [
    {"smiles": "O=c1cc(-c2ccccc2)oc2cc(O)c(O)c(O)c12", "note": "[baicalein]", "values": [
      {"measurement": "Triple point temperature", "value": "537 ± 10", "unit": "K"}
    ]}
  ]
}
